{"source": "patent US20150283120A1", "about": "“ANTIBIOTIC METHODS AND COMPOSITIONS FOR BACTERIA INFECTIONS” (THE UNIVERSITY OF CHICAGO, priority 2012, published 2015)", "key": {"[1]": {"tested_on": "vraSR transcription (Pvra::lux)", "type": "cell-based, Staphylococcus aureus", "in_short": "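Secondary screen: compound at 10 μM plus oxacillin 2 μg/mL, four biological replicates, luminescence read every 15 minutes. RG and RL are OD600 or max LU with compound plus oxacillin over pooled same-plate oxacillin controls; RL <0.8 repressor, >1.2 stimulator, 0.80-1.2 neutral.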"}, "[2]": {"tested_on": "MRSA strain USA300-isolate 923", "experiment": "Checkerboard MIC testing of compounds with oxacillin", "type": "cell-based, Staphylococcus aureus", "settings": "Staphylococcus aureus; strain 923; oxacillin alone (Men 0 μM)"}, "diverse MRSA strains": {"tested_on": "diverse MRSA strains", "experiment": "MIC of oxacillin with a single concentration of compound in multiple MRSA strains", "type": "cell-based, Staphylococcus aureus", "settings": "Staphylococcus aureus", "protocol": "Testing potentiation of oxacillin by compounds in multiple MRSA strains: In order to be considered a synergistic agent in therapy of MRSA infection, it must be effective as a potentiator in diverse MRSA strains. To determine whether the oxacillin potentiators were effective against MRSA strains besides USA300, a single effective concentration of three compounds that were not known as antibiotics—gossypol, pyrvinium and clomiphene—were tested against multiple MRSA genetic backgrounds. Each compound was tested at a single optimal concentration, determined in the checkerboard assays, in combination with various concentrations of oxacillin. The strains included in this panel were from diverse genetic backgrounds as determined by multilocus sequence type (MLST) and contained a variety of SCCmec types. […] The MIC80 was […] for clomiphene, gossypol, and pyrvinium, respectively."}, "strain 923 [3]": {"tested_on": "strain 923", "settings": "strain 923, CLSI guidelines; cited from earlier work"}, "strain 11095": {"tested_on": "strain 11095", "experiment": "Checkerboard oxacillin + compound, strain 11095", "parameters": "MIC OX / MIC OX (+) / MIC cmpd alone: unit not given beside the values", "settings": "oxacillin alone"}, "strain 923 [4]": {"tested_on": "strain 923", "experiment": "Oxacillin MIC of strain 923 (assay development)"}, "MRSA strain 8004-01": {"tested_on": "MRSA strain 8004-01", "experiment": "Checkerboard oxacillin + compound, strain 8004-01", "parameters": "MIC OX / MIC OX (+) / MIC cmpd alone: unit not given beside the values", "settings": "strain 8004-1 (ST239); oxacillin alone; listed as OX"}, "[5]": {"tested_on": "vraSR expression (923 Pvra-lux)", "experiment": "Validation of test strain: luminescence as a function of oxacillin concentration", "settings": "strain 923 Pvra-lux, luminescence 2 hours after induction"}}, "note": "Several values for one entry are separate records, joined by “and”; a condition that tells them apart may be missing. Equal entries are not always repeated. Where two headings read alike, the source gives them in different places."}
{"smiles": "Cc1onc(-c2ccccc2)c1C(=O)N[C@@H]1C(=O)N2[C@@H]1SC(C)(C)[C@@H]2C(=O)O", "note": "[oxacillin]", "values": [{"measurement": "average LU of pooled positive controls", "setting": "[1]; grown in the presence of oxacillin 2 μg/mL, all runs of the secondary assay", "value": "144 (SD+/−16) LU"}, {"measurement": "induction of Pvra::lux", "setting": "[1]; oxacillin 2 μg/mL against no oxacillin", "value": 2.7, "unit": "fold"}, {"measurement": "MIC", "setting": "[2]", "value": 32, "unit": "µg/mL"}, {"measurement": "MIC", "setting": "diverse MRSA strains; MRSA, in the absence of compound, range over strains, read-out: MICs of oxacillin for the strains of the panel", "value": "2 to 256", "unit": "µg/mL"}, {"measurement": "MIC", "setting": "diverse MRSA strains; MRSA, isolate Q2461 (SCCmec VT, ST 59), Ox alone, read-out: MIC Ox", "value": 8, "unit": "µg/mL"}, {"measurement": "MIC50", "setting": "diverse MRSA strains; MRSA, panel of strains, absence of compound, read-out: MIC50 of oxacillin", "value": 16, "unit": "µg/mL"}, {"measurement": "MIC", "setting": "diverse MRSA strains; isolate 923 (SCCmec IV, ST 8), Ox alone, read-out: MIC Ox", "value": 16, "unit": "µg/mL"}, {"measurement": "MIC", "setting": "diverse MRSA strains; isolate 1176 (SCCmec II, ST 231), Ox alone, read-out: MIC Ox", "value": 32, "unit": "µg/mL"}, {"measurement": "MIC", "setting": "diverse MRSA strains; isolate 2169 (SCCmec IV, ST 72), Ox alone, read-out: MIC Ox", "value": 16, "unit": "µg/mL"}, {"measurement": "MIC", "setting": "diverse MRSA strains; isolate 8004-01 (SCCmec III, ST 239), Ox alone, read-out: MIC Ox", "value": 256, "unit": "µg/mL"}, {"measurement": "MIC", "setting": "diverse MRSA strains; isolate 8010-01 (SCCmec IV, ST 8), Ox alone, read-out: MIC Ox", "value": 8, "unit": "µg/mL"}, {"measurement": "MIC", "setting": "diverse MRSA strains; isolate 8227-01 (SCCmec IV, ST 87), Ox alone, read-out: MIC Ox", "value": 4, "unit": "µg/mL"}, {"measurement": "MIC", "setting": "diverse MRSA strains; isolate 11095 (SCCmec II, ST 105), Ox alone, read-out: MIC Ox", "value": 128, "unit": "µg/mL"}, {"measurement": "MIC", "setting": "diverse MRSA strains; isolate 13113 (SCCmec II, ST 5), Ox alone, read-out: MIC Ox", "value": 8, "unit": "µg/mL"}, {"measurement": "MIC", "setting": "diverse MRSA strains; isolate 13354 (SCCmec IV, ST 5), Ox alone, read-out: MIC Ox", "value": 8, "unit": "µg/mL"}, {"measurement": "MIC", "setting": "diverse MRSA strains; isolate 14315 (SCCmec IV, ST 1), Ox alone, read-out: MIC Ox", "value": 16, "unit": "µg/mL"}, {"measurement": "MIC50", "setting": "diverse MRSA strains; panel of 11 MRSA isolates, Ox alone, read-out: MIC 50 of Ox", "value": 16, "unit": "µg/mL"}, {"measurement": "MIC80", "setting": "diverse MRSA strains; panel of 11 MRSA isolates, Ox alone, read-out: MIC 80 of Ox", "value": 128, "unit": "µg/mL"}, {"measurement": "24-h oxacillin MIC", "setting": "strain 923 [3]", "value": "16 to 32", "unit": "µg/mL"}, {"measurement": "MIC OX", "setting": "strain 11095", "value": 512}, {"measurement": "MIC", "setting": "strain 923 [4]; Staphylococcus aureus, 923, read-out: MIC of oxacillin, 923 containing pPvra-lux, 96-well format", "value": 5, "unit": "µg/mL"}, {"measurement": "MIC", "setting": "strain 923 [4]; Staphylococcus aureus, 923, read-out: MIC of oxacillin, strain 923, 96-well format", "value": 8, "unit": "µg/mL"}, {"measurement": "MIC OX", "setting": "MRSA strain 8004-01", "value": "512 and >256"}, {"measurement": "minimum concentration sufficient for maximal vraSR expression", "setting": "[5]", "value": 2, "unit": "µg/mL"}]}
